Test results reported in the NIST ThermoML archive (doi:10.1016/j.tca.2013.06.032).
Numbers after ± are expanded uncertainties.

Columns and labels:
[1] = Molar enthalpy of transition or fusion; conditions: Crystal; DSC
[2] = Crystal; DTA

## Cc1nc2n(c(=O)c1CCN1CCC(c3noc4cc(F)ccc34)CC1)CCCC2 [risperidone]
[1]
  Molar enthalpy of transition or fusion: 41.9 ± 1.1 kJ/mol
[2]
  Normal melting temperature: 170.52 ± 1.1 °C
